Results as given in patent US11464770B2, “Anticancer pharmaceutical composition” (NATIONAL CANCER CENTER, priority 2016, dated 2022).
Read-outs that look alike come from different tables or passages of the source.

Assays:
[1] = test system: blood cancer cell lines (e.g. HL-60, Jurkat, Raji, Ramos, Daudi, MOLT-4); assay: Cell based assay, cell viability (CellTiter-Glo), blood cancer cell lines; conditions: Homo sapiens
Procedure: Commercially available bladder cancer, prostate cancer, lung cancer, breast cancer, blood cancer, pancreatic cancer, colorectal cancer, brain cancer, neuroblastoma, melanoma, liver cancer, cervical carcinoma, ovarian cancer, renal cancer, and papilloma cell lines were each treated with trypsin-EDTA and cultured, followed by being seeded in each well of a 96 well plate. After 24 hours of treatment at constant temperature, the respective cells were treated with the candidate compound so that a final concentration became 0 to 2 μM. The treated cells were additionally cultured for 72 hours, and cell viability was measured by using an ATP detection method (CellTiter-Glo® Luminescent Cell Viability Assay, Promega).

brain cancer cell lines = assay: Cell based assay, cell viability (CellTiter-Glo), brain cancer cell lines; conditions: Homo sapiens
Procedure: (§1) Commercially available bladder cancer, prostate cancer, lung cancer, breast cancer, blood cancer, pancreatic cancer, colorectal cancer, brain cancer, neuroblastoma, melanoma, liver cancer, cervical carcinoma, ovarian cancer, renal cancer, and papilloma cell lines were each treated with trypsin-EDTA and cultured, followed by being seeded in each well of a 96 well plate. […] The treated cells were additionally cultured for 72 hours, and cell viability was measured by using an ATP detection method (CellTiter-Glo® Luminescent Cell Viability Assay, Promega).

[2] = test system: cervical carcinoma cell lines; assay: Cell based assay, cell viability (CellTiter-Glo), cervical carcinoma cell lines; conditions: Homo sapiens; HeLa cells
Procedure: as §1

[3] = test system: RT4: human urinary bladder transitional cell papilloma; assay: Cell based assay, cytotoxicity in RT4 papilloma cells (selectivity); conditions: Homo sapiens, RT-4; RT4 cells
Procedure: as §1

[4] = MV4-11, blood cancer cell line MV-4-11, 72 hours, read-out: IC50, MV-4-11
[5] = blood cancer cell line Daudi, 72 hours, read-out: IC50, Daudi
[6] = blood cancer cell line HL-60, 72 hours, read-out: IC50, HL-60
[7] = blood cancer cell line Jurkat, 72 hours, read-out: IC50, Jurkat
[8] = blood cancer cell line MOLT-4, 72 hours, read-out: IC50, MOLT-4
[9] = blood cancer cell line Raji, 72 hours, read-out: IC50, Raji
[10] = blood cancer cell line Ramos (RA 1), 72 hours, read-out: IC50, Ramos (RA 1)
[11] = blood cancer cell line U-937, 72 hours, read-out: IC50, U-937
[12] = U138-MG, U-138 MG cell line, read-out: IC50, Brain cancer cell line U-138 MG
[13] = T98G cell line, read-out: IC50, Brain cancer cell line T98G
[14] = U-251 MG cell line, read-out: IC50, Brain cancer cell line U-251 MG

Row | SMILES | IC50 [1, 4] [nM] | IC50 [1, 5] [nM] | IC50 [1, 6] [nM] | IC50 [1, 7] [nM] | IC50 [1, 8] [nM] | IC50 [1, 9] [nM] | IC50 [1, 10] [nM] | IC50 [1, 11] [nM] | IC50 (brain cancer cell lines; [12]) [nM] | IC50 (brain cancer cell lines; [13]) [nM] | IC50 (brain cancer cell lines; [14]) [nM] | IC50 [2] [nM] | IC50 [3] [nM]
1 | CSc1[nH]c2c(Br)ccc(Cl)c2c(=O)c1C(C)=O [Compound 2, 3-acetyl-8-bromo-5-chloro-2-(methylthio)quinolin-4(1H)-one] | > 2000 | > 2000 | > 2000 | > 2000 | > 2000 | > 2000 | > 2000 | > 2000 | > 10000 | > 10000 | > 2000 | > 10000 | > 10000
2 | CC(=O)c1c(S(=O)(=O)Cc2ccccc2)nc2c(Br)ccc(Cl)c2c1O [Compound 54, 1-(2-(benzylsulfonyl)-8-bromo-5-chloro-4-hydroxyquinolin-3-yl)ethan-1-one] | > 2000 | > 2000 | > 2000 | > 2000 | > 2000 | > 2000 | > 2000 | > 2000 | > 10000 | > 10000 | > 2000 | > 10000 | > 10000
3 | CSc1c(C(C)=O)c(=O)c2c(Cl)ccc(Br)c2n1S(C)(=O)=O [Compound 35, 3-acetyl-8-bromo-5-chloro-1-(methylsulfonyl)-2-(methylthio)quinolin-4(1H)-one] | > 2000 | > 2000 | > 2000 | > 2000 | > 2000 | > 2000 | > 2000 | > 2000 | > 10000 | > 10000 | > 2000 | > 10000 | > 10000
4 | CC(=O)c1c([S+]([O-])Cc2ccccc2)nc2c(Br)ccc(Cl)c2c1O (centres unmarked) [Compound 53, 1-(2-(benzylsulfinyl)-8-bromo-5-chloro-4-hydroxyquinolin-3-yl)ethan-1-one] | > 2000 | > 2000 | > 2000 | > 2000 | > 2000 | > 2000 | > 2000 | > 2000 | > 10000 | > 10000 | > 2000 | > 10000 | > 10000
5 | CC(=O)c1c([S+]([O-])CC#N)[nH]c2c(Br)ccc(Cl)c2c1=O (centres unmarked) [Compound 65, 2-((3-acetyl-8-bromo-5-chloro-4-oxo-1,4-dihydroquinolin-2-yl)sulfinyl)acetonitrile] | > 2000 | > 2000 | > 2000 | > 2000 | > 2000 | > 2000 | > 2000 | > 2000 | > 10000 | > 10000 | > 2000 | > 10000 | > 10000
6 | COc1cccc2[nH]c(SCc3ccc(S(F)(F)(F)(F)F)cc3)c(C(C)=O)c(=O)c12 [Compound 92, 3-acetyl-5-methoxy-2-((4-(pentafluoro--sulfanyl)benzyl)thio)quinolin-4(1H)-one] | > 2000 | > 2000 | > 2000 | > 2000 | > 2000 | > 2000 | > 2000 | > 2000 | > 10000 | > 10000 | > 2000 | > 10000 | > 10000
7 | CSc1c(C(C)=O)c(=O)c2c(Cl)ccc(Br)c2n1S(=O)(=O)c1ccc(C(C)(C)C)cc1 [Compound 40, 3-acetyl-8-bromo-1-((4-(tert-butyl)phenyl)sulfonyl)-5-chloro-2-(methylthio)quinolin-4(1H)-one] | > 2000 | > 2000 | > 2000 | > 2000 | > 2000 | > 2000 | > 2000 | > 2000 | > 10000 | > 10000 | > 2000 | > 10000 | > 10000
8 | COc1ccccc1[S+]([O-])c1[nH]c2c(Br)ccc(Cl)c2c(=O)c1C(C)=O (centres unmarked) [Compound 15, 3-acetyl-8-bromo-5-chloro-2-((2-methoxyphenyl)sulfinyl)quinolin-4(1H)-one] | > 2000 | > 2000 | > 2000 | > 2000 | > 2000 | > 2000 | > 2000 | > 2000 | > 2000 | > 10000 | > 2000 | > 10000 | > 10000
9 | CC(=O)c1c([S+](C)[O-])[nH]c2c(Cl)ccc(Cl)c2c1=O (centres unmarked) [Compound 6, 3-acetyl-5,8-dichloro-2-(methylsulfinyl)quinolin-4(1H)-one] | 1260 | > 2000 | 1650 | > 2000 | 1690 | > 2000 | > 2000 | > 2000 | > 2000 | > 10000 | > 2000 | > 10000 | > 10000
10 | Cc1cc(C[S+]([O-])c2[nH]c3c(Cl)ccc(Cl)c3c(=O)c2C(=O)c2ccccc2)no1 (centres unmarked) [Compound 88, 3-benzoyl-5,8-dichloro-2-(((5-methylisoxazol-3-yl)methyl)sulfinyl)quinolin-4(1H)-one] | > 2000 | > 2000 | > 2000 | > 2000 | > 2000 | > 2000 | > 2000 | > 2000 | > 10000 | > 10000 | > 2000 | > 10000 | > 10000
11 | CC(=O)c1c(SCc2ccccc2)nc2c(Br)ccc(Cl)c2c1O [Compound 52, 1-(2-(benzylthio)-8-bromo-5-chloro-4-hydroxyquinolin-3-yl)ethan-1-one] | > 2000 | > 2000 | > 2000 | > 2000 | > 2000 | > 2000 | > 2000 | > 2000 | > 10000 | > 10000 | > 2000 | > 10000 | > 10000
12 | CC(=O)c1c([S+]([O-])Cc2ccc(C(F)(F)F)o2)[nH]c2c(F)ccc(F)c2c1=O (centres unmarked) [Compound 81, 3-acetyl-5,8-difluoro-2-(((5-(trifluoromethyl)furan-2-yl)methyl)sulfinyl)quinolin-4(1H)-one] | > 2000 | > 2000 | > 2000 | > 2000 | > 2000 | > 2000 | > 2000 | > 2000 | > 2000 | > 10000 | > 2000 | > 10000 | > 10000
13 | O=C(c1ccccc1)c1c([S+]([O-])Cc2ccc(S(F)(F)(F)(F)F)cc2)[nH]c2c(F)ccc(F)c2c1=O (centres unmarked) [Compound 87, 3-benzoyl-5,8-difluoro-2-((4-(pentafluoro--sulfanyl)benzyl)sulfinyl)quinolin-4(1H)-one] | > 2000 | > 2000 | > 2000 | > 2000 | > 2000 | > 2000 | > 2000 | > 2000 | > 10000 | > 10000 | > 2000 | > 10000 | > 10000
14 | Cc1cc(C[S+]([O-])c2[nH]c3c(Cl)ccc(Cl)c3c(=O)c2C(=O)C2CC2)no1 (centres unmarked) [Compound 97, 5,8-dichloro-3-(cyclopropanecarbonyl)-2-(((5-methylisoxazol-3-yl)methyl)sulfinyl)quinolin-4(1H)-one] | 800 | 1040 | > 2000 | 510 | 770 | 1290 | 700 | 1350 | 1690 | > 10000 | 1120 | > 2000 | > 10000
